Assay results taken from the Deep4Chem optical property database.
“And” between values parts separate entries of the source, which are not always exact repeats. Equal entries are not always repeated. Each block holds one compound with its values, some of them ahead of it.

Assay: solvent given as SMILES

Structure (SMILES): CCCCCCCCCCCCOc1ccc(C2=C3C(=O)N(CC(OCC)OCC)C(c4ccc(OCCCCCCCCCCCC)c(OCCCCCCCCCCCC)c4)=C3C(=O)N2CC(OCC)OCC)cc1OCCCCCCCCCCCC
absorption maximum (in ClC(Cl)Cl): 496 nm

Structure (SMILES): CN(C)c1ccc(C2=Nc3scc[n+]3[B-](F)(F)O2)cc1
absorption maximum (in C1CCOC1): 402 nm
absorption maximum (in CC#N): 402 nm
absorption maximum (in Cc1ccccc1): 405 nm
absorption maximum (in ClCCl): 407 nm

Structure (SMILES): CC(C)(C)c1ccc(C2=CC3=C(c4ccccc4)c4cc(-c5ccc(C(C)(C)C)cc5)c(-c5ccc(C(C)(C)C)cc5)n4[B-](F)(F)[N+]3=C2c2ccc(C(C)(C)C)cc2)cc1
absorption maximum (in C1CCCCC1): 602 nm
absorption maximum (in C1CCOC1): 601 nm
absorption maximum (in CC#N): 590 nm
absorption maximum (in Cc1ccccc1): 605 nm
absorption maximum (in ClCCl): 598 nm

Structure (SMILES): Nc1ccccc1C(=O)O
absorption maximum (in C1CCCCC1): 338 nm
absorption maximum (in C1COCCO1): 338 nm
absorption maximum (in CC#N): 336 nm
absorption maximum (in CC(C)=O): 336 nm
absorption maximum (in CCO): 334 nm
absorption maximum (in CO): 334 nm
absorption maximum (in CS(C)=O): 342 nm
absorption maximum (in O): 290 nm and 310 nm
absorption maximum (in OCC(F)(F)F): 320 nm
absorption maximum (in c1ccccc1): 340 nm

Structure (SMILES): F[B-]1(F)n2c(Nc3cccc4cccnc34)ccc2C(c2ccccc2)=C2C=CC(Cl)=[N+]21
absorption maximum (in C1CCCCC1): 560 nm
absorption maximum (in CC#N): 547 nm
absorption maximum (in Cc1ccccc1): 561 nm
absorption maximum (in ClC(Cl)Cl): 555 nm

Structure (SMILES): O=C(c1ccncc1)c1ccc(-n2c3ccccc3c3ccccc32)cc1
absorption maximum (in C1CCOC1): 353.15 nm
absorption maximum (in CCCCCC): 354.95 nm
absorption maximum (in Cc1ccccc1): 359 nm
absorption maximum (in ClCCl): 359.23 nm

Structure (SMILES): CN(C)c1ccc(/C=C/c2nc3c4ccccc4c4ccccc4c3[nH]2)cc1
absorption maximum (in C1CCOC1): 390 nm
absorption maximum (in C1COCCO1): 389 nm
absorption maximum (in CC1CCCCC1): 386 nm
absorption maximum (in CC#N): 389 nm
absorption maximum (in CCOC(C)=O): 387 nm
absorption maximum (in CCOCC): 386 nm
absorption maximum (in CN(C)C=O): 392 nm
absorption maximum (in COC(C)=O): 389 nm
absorption maximum (in CS(C)=O): 396 nm
absorption maximum (in Cc1ccccc1): 393 nm
absorption maximum (in ClC(Cl)Cl): 393 nm

Structure (SMILES): CCOC(=O)C1=CN(c2ccccc2)C=CC1c1ccccc1 (stereo not drawn)
absorption maximum (in C1CCOC1): 344 nm
absorption maximum (in CO): 348 nm

Structure (SMILES): CCCCN1C(=O)c2cc(Br)c3c4c(Br)cc5c6c(cc(Br)c(c7c(Br)cc(c2c37)C1=O)c64)C(=O)N(CCCC)C5=O
absorption maximum (in ClC(Cl)Cl): 532 nm

The next lines start with the values.

absorption maximum (in CCO): 573 nm
absorption maximum (in O): 574 nm
Structure (SMILES): O=C([O-])c1ccc(C2=c3cc4c5c(c3Oc3c2cc2c6c3CCCN6CCC2)CCC[N+]=5CCC4)c(C(=O)[O-])c1

absorption maximum (in ClCCl): 391 nm
Structure (SMILES): c1ccc(N2N=C(c3cccc4ccccc34)CC2c2ccc3ccc4cccc5ccc2c3c45)cc1 (stereo not drawn)

absorption maximum (in C1CCOC1): 316 nm
Structure (SMILES): CCCCn1c2ccccc2c2c1c1c3ccccc3n(CCCC)c1c1c3ccccc3n(CCCC)c21

absorption maximum (in CC#N): 357 nm
absorption maximum (in CCCCCC): 354 nm
absorption maximum (in CCO): 362 nm
absorption maximum (in CO): 359 nm
absorption maximum (in ClCCl): 360 nm
Structure (SMILES): c1ccc(-c2cc(-c3ccc(N(c4ccccc4)c4ccccc4)cc3)cc(-c3ccccc3)n2)cc1

absorption maximum (in C1COCCO1): 395 nm
absorption maximum (in CC#N): 396 nm
absorption maximum (in CCCCCCC): 393 nm
absorption maximum (in CO): 399 nm
Structure (SMILES): C(/C=C/c1ccc(N(c2ccccc2)c2ccccc2)cc1)=C\c1ccncc1

absorption maximum (in CC#N): 392 nm
absorption maximum (in CO): 394 nm
absorption maximum (in CS(C)=O): 396 nm
absorption maximum (in ClC(Cl)Cl): 397 nm
Structure (SMILES): O=C1c2ccccc2C2=Cc3cc4c(cc3B(O)N12)OCO4

absorption maximum (in ClCCl): 388 nm
Structure (SMILES): CCCCCCN1C(=O)c2cccc3c(-c4ccc(-c5cc(-c6ccccc6)nn5-c5ccccc5)s4)ccc(c23)C1=O

absorption maximum (in C1COCCO1): 456 nm
Structure (SMILES): CC(C)CN1C(=O)/C(=C/c2ccc([N+](=O)[O-])cc2)C=C1c1ccccc1

absorption maximum (in C1COCCO1): 398 nm
absorption maximum (in CC#N): 397 nm
absorption maximum (in CCCCOCCCC): 398 nm
absorption maximum (in CCOC(C)=O): 396 nm
Structure (SMILES): Clc1nc(Nc2ccccc2)nc(Nc2ccc3cc4ccccc4cc3c2)n1

absorption maximum (in C1CCOC1): 436 nm
Structure (SMILES): COc1cc(/C=C2\C=C(c3ccccc3)C=C2c2ccccc2)cc(OC)c1

absorption maximum (in ClC(Cl)Cl): 380 nm
Structure (SMILES): O=C1[C@@H]2[C@H](C(=O)N1c1ccc3cc4ccccc4cc3c1)[C@@H]1C=C[C@H]2C1

absorption maximum (in ClC(Cl)Cl): 329.71 nm
Structure (SMILES): CC(C)(C)c1ccc(-c2cc3c4c(c2)CCc2cc(-c5ccc(C(C)(C)C)cc5)cc(c2-4)CC3)cc1
